{"source": "paper PMC6934498", "about": "“Neferine induces autophagy-dependent cell death in apoptosis-resistant cancers via ryanodine receptor and Ca^2+-dependent mechanism” (Scientific Reports, 2019)", "biological_target": "T1, SERCA1A (sarcoplasmic/endoplasmic reticulum Ca2+ ATPase) (Oryctolagus cuniculus, UniProt P04191)", "T1 construct": "gene ATP2A1; purified rabbit skeletal muscle SR membranes expressing the SERCA1A isoform", "T1 sequence (P04191 1-993)": "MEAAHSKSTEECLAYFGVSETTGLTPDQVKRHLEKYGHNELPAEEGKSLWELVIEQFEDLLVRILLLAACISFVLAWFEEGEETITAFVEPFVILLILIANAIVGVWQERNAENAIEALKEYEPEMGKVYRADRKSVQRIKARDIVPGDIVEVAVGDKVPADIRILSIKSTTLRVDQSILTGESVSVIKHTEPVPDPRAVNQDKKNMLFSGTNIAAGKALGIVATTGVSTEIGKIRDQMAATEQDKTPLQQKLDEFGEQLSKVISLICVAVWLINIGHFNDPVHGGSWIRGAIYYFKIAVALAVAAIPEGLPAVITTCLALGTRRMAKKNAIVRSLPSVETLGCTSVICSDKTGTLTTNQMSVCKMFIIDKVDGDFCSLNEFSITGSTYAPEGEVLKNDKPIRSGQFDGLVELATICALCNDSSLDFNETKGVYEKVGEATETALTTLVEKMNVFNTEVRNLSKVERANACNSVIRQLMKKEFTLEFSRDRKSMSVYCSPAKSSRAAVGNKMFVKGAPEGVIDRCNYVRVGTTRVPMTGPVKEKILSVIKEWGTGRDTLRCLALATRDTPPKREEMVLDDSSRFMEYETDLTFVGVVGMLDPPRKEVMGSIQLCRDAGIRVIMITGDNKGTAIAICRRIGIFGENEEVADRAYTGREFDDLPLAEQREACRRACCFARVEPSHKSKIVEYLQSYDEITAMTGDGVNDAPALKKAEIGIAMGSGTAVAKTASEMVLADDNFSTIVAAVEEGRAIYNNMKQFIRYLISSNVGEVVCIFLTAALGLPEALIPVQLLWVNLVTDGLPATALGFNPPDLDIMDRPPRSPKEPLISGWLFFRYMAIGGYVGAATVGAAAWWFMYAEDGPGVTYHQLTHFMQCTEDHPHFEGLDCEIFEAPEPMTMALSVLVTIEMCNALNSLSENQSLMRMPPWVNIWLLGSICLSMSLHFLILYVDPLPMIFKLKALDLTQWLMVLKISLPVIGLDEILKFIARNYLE", "assay": "coupled-enzyme ATPase assay on purified SERCA1A from rabbit skeletal muscle", "type": "biochemical", "data": [{"smiles": "COc1ccc(C[C@@H]2c3cc(Oc4cc(C[C@@H]5c6cc(OC)c(OC)cc6CCN5C)ccc4O)c(OC)cc3CCN2C)cc1", "note": "[neferine]", "values": [{"measurement": "IC50", "value": "320 ± 70", "unit": "µM"}]}]}
